Measurements: PubChem BioAssay (NCI)
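Following 48 hours of exposure in 96-well plates, responses at five concentrations were used to interpolate endpoints linearly. TGI marks complete inhibition of growth.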 Where a SMILES comes first, the peptide text is derived from it. The star is where a group is joined. OSu = O=C1CCC(=O)N1O*

Tests used:
Experiment in all cases: growth of human tumour cells (NCI), 48 h
MCF7 breast = system: MCF7 breast
NCI-H460 lung = system: NCI-H460 lung
CCRF-CEM leukemia = system: CCRF-CEM leukemia
NCI/ADR-RES ovarian = system: NCI/ADR-RES ovarian
OVCAR-3 ovarian = system: OVCAR-3 ovarian
MDA-MB-231 breast = system: MDA-MB-231 breast
MDA-N = system: MDA-N
SF-295 CNS = system: SF-295 CNS

Structure (SMILES) | TGI (MCF7 breast) | TGI (NCI-H460 lung) | TGI (CCRF-CEM leukemia) | TGI (NCI/ADR-RES ovarian) | TGI (OVCAR-3 ovarian) | TGI (MDA-MB-231 breast) | TGI (MDA-N) | TGI (SF-295 CNS)
Cc1cc(C)nc(NS(=O)(=O)c2ccc(NC(=O)c3cc([N+](=O)[O-])cc([N+](=O)[O-])c3)cc2)n1 | > 100 µM | > 100 µM | > 100 µM | > 100 µM | 98.4 µM | > 100 µM | > 100 µM | –
CNC(=S)/C(C#N)=C(\N)N1CCCC1 | – | > 100 µM | > 100 µM | > 100 µM | > 100 µM | > 100 µM | > 100 µM | –
C=CCCC(=O)C(=[N+]=[N-])C(=O)CCC(=O)c1ccccc1 | > 10 µM | > 10 µM | – | – | > 10 µM | > 10 µM | > 10 µM | > 10 µM
CC1(C)OC2OC(COC(=O)c3ccc(C#N)cc3)C3OC(C)(C)OC3C2O1 (stereo unspecified) | > 75 µM | – | > 75 µM | > 75 µM | > 75 µM | > 75 µM | > 75 µM | > 75 µM
COc1cc(OC)c(C2(c3c(OC(C)C)c(=O)c3=O)SCCCS2)cc1OC | > 100 µM | > 100 µM | > 100 µM | > 100 µM | > 100 µM | > 100 µM | > 100 µM | > 100 µM
O=C(C1OC1c1cccc([N+](=O)[O-])c1)C12CC3CC(CC(C3)C1)C2 (stereo unspecified) | 12.8 µM | 14.5 µM | 13.1 µM | 9.74 µM | 12.5 µM | 17.5 µM | 11.9 µM | 17.3 µM
Cc1cc(N(CCC#N)CCC#N)ccc1/C(N=Nc1ccc([N+](=O)[O-])cc1)=N\NC(=O)c1ccccc1 | > 100 µM | > 100 µM | > 100 µM | > 100 µM | > 100 µM | > 100 µM | > 100 µM | > 100 µM
CC(=O)n1nc(-c2ccc3ccccc3c2)nc1C | > 100 µM | > 100 µM | > 100 µM | > 100 µM | > 100 µM | > 100 µM | > 100 µM | > 100 µM
COc1ccc2c3c1OC1C(OC)(OC)CC4(C=C2)CN(C)CCC314 (stereo unspecified) | > 100 µM | > 100 µM | > 100 µM | > 100 µM | > 100 µM | > 100 µM | > 100 µM | > 100 µM
NC(N)=N/N=C/c1c(-c2cc([N+](=O)[O-])c(Cl)cc2Cl)nc2n1CCS2 | – | > 100 µM | > 100 µM | > 100 µM | > 100 µM | > 100 µM | – | 70.4 µM
CCN(CC)CCN1C(=O)C(=O)N(c2cccc3ccccc23)C1=O | > 10 µM | > 10 µM | > 10 µM | > 10 µM | > 10 µM | > 10 µM | > 10 µM | > 10 µM
CCOC(=O)C1(C(=O)OCC)C=C(c2ccccc2)N(C2OC(COC(C)=O)C(OC(C)=O)C(OC(C)=O)C2OC(C)=O)C1=S (stereo unspecified) | > 100 µM | > 100 µM | > 100 µM | > 100 µM | > 100 µM | > 100 µM | > 100 µM | > 100 µM
O=C1NC(=Nc2ccccc2Cl)N/C1=C\c1ccc(Cl)cc1Cl | > 100 µM | > 100 µM | > 100 µM | > 100 µM | > 100 µM | – | > 100 µM | > 100 µM
O=C1NC(=Nc2ccccc2)C(=Nc2ccccc2)N1c1ccccc1 | – | 30.8 µM | 76.3 µM | 30.6 µM | – | 35.6 µM | 25.6 µM | 29.4 µM
CCNC(=S)NNC(=O)CSc1nc2ccc(I)cc2c(=O)n1Cc1ccccc1 | > 100 µM | > 100 µM | > 100 µM | > 100 µM | > 100 µM | > 100 µM | > 100 µM | > 100 µM
Cc1cc(NS(=O)(=O)c2ccc(Nc3c4ccccc4nc4c(C(=O)NCCO)cccc34)cc2)no1 | 45.5 µM | > 100 µM | 75.2 µM | > 100 µM | > 100 µM | > 100 µM | > 100 µM | > 100 µM
Cc1ccc(SCC(OCn2cnc3c(Cl)nc(N)nc32)[C@H](C)F)cc1 (stereo partly specified) | > 100 µM | > 100 µM | > 100 µM | > 100 µM | > 100 µM | > 100 µM | > 100 µM | > 100 µM
COc1ccc(CCN2C(=O)CC34C=CC(CC3C2=O)O4)cc1OC (stereo unspecified) | > 100 µM | – | > 100 µM | > 100 µM | > 100 µM | > 100 µM | > 100 µM | > 100 µM
NCCCCC(NC(=O)C(N)Cc1ccc(O)cc1)C(=O)NC(Cc1ccc(O)cc1)C(=O)NC(CCCCN)C(=O)ON1C(=O)CCC1=O (stereo unspecified) (H-YKYK-OSu; configuration not given here) | > 100 µM | > 100 µM | – | – | – | > 100 µM | > 100 µM | –
CC12CCC(CC1(Cl)Cl)C2 (stereo unspecified) | > 100 µM | > 100 µM | > 100 µM | > 100 µM | > 100 µM | – | – | > 100 µM
CCOC(=O)c1nc2cc(C(F)(F)F)ccc2nc1Oc1ccc(F)cc1 | > 100 µM | > 100 µM | > 100 µM | > 100 µM | > 100 µM | > 100 µM | > 100 µM | > 100 µM
C/C(=N\NC(N)=S)c1sc(-n2nc(-c3ccccc3)cc2-c2ccccc2)nc1C | > 100 µM | > 100 µM | > 100 µM | > 100 µM | > 100 µM | > 100 µM | > 100 µM | > 100 µM
COc1ccc(/C=C/C(=O)Oc2ccccc2OC)cc1 | > 100 µM | > 100 µM | 10.5 µM | > 68.3 µM | > 100 µM | 18 µM | > 100 µM | 10.7 µM
NS(=O)(=O)c1nnc(NS(=O)(=O)c2ccc([N+](=O)[O-])cc2)s1 | > 100 µM | > 100 µM | – | > 100 µM | > 100 µM | > 100 µM | – | > 100 µM
Cc1ccc(/S(Cc2ccccc2)=N\S(=O)(=O)c2ccc(C)cc2)cc1 (stereo unspecified) | > 100 µM | > 100 µM | > 100 µM | > 100 µM | > 100 µM | – | > 100 µM | > 100 µM
COc1cc(OC)c(OC)cc1/C=C/c1cc[n+](C)c2ccccc12 | > 100 µM | > 100 µM | 80.9 µM | > 100 µM | – | – | > 100 µM | > 100 µM
CCC(=O)Nc1ccc(NCC(=O)Nc2ccc(OC)cc2)cc1 | 33.3 µM | – | > 100 µM | 85.7 µM | 78.6 µM | – | > 100 µM | > 100 µM
